Assay [1] has as its system SARS-CoV-2 (USA_WA1/2020). In words: Antiviral Activity from SARS-CoV-2 Infection (cytopathic effect, Cell Titer-Glo). Type of assay: cell-based. The following applies: Severe acute respiratory syndrome coronavirus 2, Vero C1008, 72 h, VeroE6 cells enriched for hACE2, MOI 0.002, 3-day incubation; tested alone or with P-gp inhibitor CP-100356 2 μM (table does not say which); read-out: Geometric Mean EC50.

The target of a further assay is T1, SARS-CoV-2 3CL protease (Severe acute respiratory syndrome coronavirus 2, UniProt P0DTD1).
T1 construct: measures the activity of full-length SARS-CoV-2 3CL protease
In words: SARS-CoV-2 Coronavirus 3C Protease FRET Assay. The class given is biochemical. Particulars: Examples 14-78 and 114 (second head of Table 2); Morrison equation fit, 15 nM enzyme, 25 μM peptide substrate; read-out: Geometric Mean Ki (nM) IC50.

SMILES strings stand for the structures.

Among the data in patent publication US20250304559A1, “Ether-Linked Antiviral Compounds” (Pfizer Inc., priority 2021, published 2025) are EC50 and Ki values, retold here.

By EC50 is commonly meant the concentration at which the effect is half-maximal. In general, Ki refers to the equilibrium dissociation constant of an inhibitor or competing ligand from its target.

As to `CC(C)[C@H](NC(=O)C(F)(F)F)C(=O)N1C[C@H]2[C@@H]([C@H]1C(=O)N[C@@H](C[C@@H]1CCNC1=O)C(=O)COc1nc(C(F)(F)F)nn1C)C2(C)C` [Example 55, (1R,2S,5S)-6,6-dimethyl-N-{(2S)-4-{[1-methyl-3-(trifluoromethyl)-1H-1,2,4-triazol-5-yl]oxy}-3-oxo-1-[(3S)-2-oxopyrrolidin-3-yl]butan-2-yl}-3-[N-(trifluoroacetyl)-L-valyl]-3-azabicyclo[3.1.0]hexane-2-carboxamide], the EC50 in assay [1] came to 642 nM. For the same molecule, on SARS-CoV-2 3CL protease, the Ki was 11.6 nM.

Regarding `CC(C)c1cccc(OCC(=O)[C@H](C[C@@H]2CCNC2=O)NC(=O)[C@@H]2[C@@H]3[C@H](CN2C(=O)[C@@H](NC(=O)C(F)(F)F)C(C)C)C3(C)C)c1` [Example 56, (1R,2S,5S)-6,6-dimethyl-N-{(2S)-3-oxo-1-[(3S)-2-oxopyrrolidin-3-yl]-4-[3-(propan-2-yl)phenoxy]butan-2-yl}-3-[N-(trifluoroacetyl)-L-valyl]-3-azabicyclo[3.1.0]hexane-2-carboxamide], in assay [1], the EC50 was 119 nM. Besides, the Ki on SARS-CoV-2 3CL protease is 14.4 nM.

As for `CC(C)[C@H](NC(=O)C(F)(F)F)C(=O)N1C[C@H]2[C@@H]([C@H]1C(=O)N[C@@H](C[C@@H]1CCNC1=O)C(=O)COc1cc(F)cc(F)c1)C2(C)C` [Example 58, (1R,2S,5S)-N-{(2S)-4-(3,5-difluorophenoxy)-3-oxo-1-[(3S)-2-oxopyrrolidin-3-yl]butan-2-yl}-6,6-dimethyl-3-[N-(trifluoroacetyl)-L-valyl]-3-azabicyclo[3.1.0]hexane-2-carboxamide], in assay [1], the EC50 came to 88.7 nM. Besides, the Ki on SARS-CoV-2 3CL protease came to 17.1 nM.

For the molecule `Cc1cc(OCC(=O)[C@H](C[C@@H]2CCNC2=O)NC(=O)[C@@H]2[C@@H]3[C@H](CN2C(=O)[C@@H](NC(=O)C(F)(F)F)C(C)C)C3(C)C)no1` [Example 61, (1R,2S,5S)-6,6-dimethyl-N-{(2S)-4-[(5-methyl-1,2-oxazol-3-yl)oxy]-3-oxo-1-[(3S)-2-oxopyrrolidin-3-yl]butan-2-yl}-3-[N-(trifluoroacetyl)-L-valyl]-3-azabicyclo[3.1.0]hexane-2-carboxamide], the EC50 in assay [1] amounted to 1800 nM. The Ki at SARS-CoV-2 3CL protease amounted to 31.7 nM.

Regarding `CC(C)[C@H](NC(=O)C(F)(F)F)C(=O)N1C[C@H]2[C@@H]([C@H]1C(=O)N[C@@H](C[C@@H]1CCNC1=O)C(=O)COc1cnsn1)C2(C)C` [Example 62, (1R,2S,5S)-6,6-dimethyl-N-{(2S)-3-oxo-1-[(3S)-2-oxopyrrolidin-3-yl]-4-[(1,2,5-thiadiazol-3-yl)oxy]butan-2-yl}-3-[N-(trifluoroacetyl)-L-valyl]-3-azabicyclo[3.1.0]hexane-2-carboxamide], in assay [1], the EC50 was determined as 1870 nM. For the same molecule, on SARS-CoV-2 3CL protease, the Ki stood at 55.7 nM.

In the case of `CC(C)[C@H](NC(=O)C(F)(F)F)C(=O)N1C[C@H]2[C@@H]([C@H]1C(=O)N[C@@H](C[C@@H]1CCNC1=O)C(=O)COc1ncnn1-c1ccccc1)C2(C)C` [Example 64, (1R,2S,5S)-6,6-dimethyl-N-{(2S)-3-oxo-1-[(3S)-2-oxopyrrolidin-3-yl]-4-[(1-phenyl-1H-1,2,4-triazol-5-yl)oxy]butan-2-yl}-3-[N-(trifluoroacetyl)-L-valyl]-3-azabicyclo[3.1.0]hexane-2-carboxamide], the EC50 in assay [1] stood at 5360 nM. Further, the inhibition constant (Ki) on SARS-CoV-2 3CL protease is 62.2 nM.

In the case of `CCc1c(OCC(=O)[C@H](C[C@@H]2CCNC2=O)NC(=O)[C@@H]2[C@@H]3[C@H](CN2C(=O)[C@@H](NC(=O)C(F)(F)F)C(C)C)C3(C)C)noc1C` [Example 67, (1R,2S,5S)-N-{(2S)-4-[(4-ethyl-5-methyl-1,2-oxazol-3-yl)oxy]-3-oxo-1-[(3S)-2-oxopyrrolidin-3-yl]butan-2-yl}-6,6-dimethyl-3-[N-(trifluoroacetyl)-L-valyl]-3-azabicyclo[3.1.0]hexane-2-carboxamide], the EC50 in assay [1] amounted to 1750 nM. The Ki at SARS-CoV-2 3CL protease was 107 nM.

For `CC(C)(C)[C@H](NS(=O)(=O)C(F)(F)F)C(=O)N1C[C@H]2[C@@H]([C@H]1C(=O)N[C@H](C[C@@H]1CCNC1=O)C(=O)COc1ccc(F)cc1F)C2(C)C` [Example 68, (1R,2S,5S)-N-{(2R)-4-(2,4-difluorophenoxy)-3-oxo-1-[(3S)-2-oxopyrrolidin-3-yl]butan-2-yl}-6,6-dimethyl-3-[3-methyl-N-(trifluoromethanesulfonyl)-L-valyl]-3-azabicyclo[3.1.0]hexane-2-carboxamide], the EC50 in assay [1] was 97 nM. Moreover, the Ki at SARS-CoV-2 3CL protease stood at 129 nM.

For the molecule `CC[C@@H]([C@H](NS(=O)(=O)C(F)(F)F)C(=O)N1C[C@H]2[C@@H]([C@H]1C(=O)N[C@@H](C[C@@H]1CCNC1=O)C(=O)COc1ccc(F)cc1F)C2(C)C)C(F)(F)F` [Example 70, (1R,2S,5S)-N-{(2S)-4-(2,4-difluorophenoxy)-3-oxo-1-[(3S)-2-oxopyrrolidin-3-yl]butan-2-yl}-6,6-dimethyl-3-[3′,3′,3′-trifluoro-N-(trifluoromethanesulfonyl)-L-isoleucyl]-3-azabicyclo[3.1.0]hexane-2-carboxamide], in assay [1], the EC50 is 5440 nM. Also, the Ki on SARS-CoV-2 3CL protease turned out to be 203 nM.

On to `Cc1ccc2nc(OCC(=O)[C@H](C[C@@H]3CCNC3=O)NC(=O)[C@@H]3[C@@H]4[C@H](CN3C(=O)[C@@H](NC(=O)C(F)(F)F)C(C)C)C4(C)C)oc2c1` [Example 72, (1R,2S,5S)-6,6-dimethyl-N-{(2S)-4-[(6-methyl-1,3-benzoxazol-2-yl)oxy]-3-oxo-1-[(3S)-2-oxopyrrolidin-3-yl]butan-2-yl}-3-[N-(trifluoroacetyl)-L-valyl]-3-azabicyclo[3.1.0]hexane-2-carboxamide], for which the EC50 in assay [1] is 19000 nM. The Ki at SARS-CoV-2 3CL protease amounted to 505 nM.

`CC(C)[C@H](NC(=O)C(F)(F)F)C(=O)N1C[C@H]2[C@@H]([C@H]1C(=O)N[C@@H](C[C@@H]1CCNC1=O)C(=O)COc1nnc(C(F)(F)F)n1C)C2(C)C` [Example 74, (1R,2S,5S)-6,6-dimethyl-N-{(2S)-4-{[4-methyl-5-(trifluoromethyl)-4H-1,2,4-triazol-3-yl]oxy}-3-oxo-1-[(3S)-2-oxopyrrolidin-3-yl]butan-2-yl}-3-[N-(trifluoroacetyl)-L-valyl]-3-azabicyclo[3.1.0]hexane-2-carboxamide]: in assay [1], the EC50 stood at 25700 nM. Moreover, on SARS-CoV-2 3CL protease, the Ki turned out to be 919 nM.

On to `CC(C)[C@H](NC(=O)C(F)(F)F)C(=O)N1C[C@H]2[C@@H]([C@H]1C(=O)N[C@@H](C[C@@H]1CCNC1=O)C(=O)COc1nnc3c(F)cccn13)C2(C)C` [Example 75, (1R,2S,5S)-N-{(2S)-4-[(8-fluoro[1,2,4]triazolo[4,3-a]pyridin-3-yl)oxy]-3-oxo-1-[(3S)-2-oxopyrrolidin-3-yl]butan-2-yl}-6,6-dimethyl-3-[N-(trifluoroacetyl)-L-valyl]-3-azabicyclo[3.1.0]hexane-2-carboxamide], for which the EC50 in assay [1] is over 76800 nM. The Ki at SARS-CoV-2 3CL protease was determined as 2900 nM.

As to `Cc1noc(OCC(=O)[C@H](C[C@@H]2CCNC2=O)NC(=O)[C@@H]2[C@@H]3[C@H](CN2C(=O)[C@@H](NC(=O)C(F)(F)F)C(C)C)C3(C)C)n1` [Example 76, (1R,2S,5S)-6,6-dimethyl-N-{(2S)-4-[(3-methyl-1,2,4-oxadiazol-5-yl)oxy]-3-oxo-1-[(3S)-2-oxopyrrolidin-3-yl]butan-2-yl}-3-[N-(trifluoroacetyl)-L-valyl]-3-azabicyclo[3.1.0]hexane-2-carboxamide], the EC50 in assay [1] was over 100000 nM. Further, the Ki on SARS-CoV-2 3CL protease is 3840 nM.
